Organism: Rattus norvegicus
Assay: Open TG-GATES - Regimen: Single
Format: toxicity, organism-based, Sprague-Dawley
Design: regimen Single, gender Male, age 6 weeks
Details: in vivo, po, route gavage; for Eos / Fbg / Hb / Ht / Lym / MCH / MCHC / MCV / Mono / Neu / PT / Plat / RBC / WBC / APTT / Bas: tissue Blood; for KIDNEY_L / KIDNEY_R / KIDNEY_TOTAL: tissue Kidney; for LIVER: tissue Liver; for ALT / AST / BUN / CRE / Cl / DBIL / GLC / IP / LDH / Na / RALB / TBIL / TC / TG / TP / gamma-GTP: tissue Plasma
[1] = 20 mg/kg, 3 h, dose level Middle
[2] = 20 mg/kg, 6 h, dose level Middle
[3] = 20 mg/kg, 9 h, dose level Middle
[4] = 20 mg/kg, 24 h, dose level Middle
[5] = 60 mg/kg, 24 h, dose level High

## CC/C(=C(\c1ccccc1)c1ccc(OCCN(C)C)cc1)c1ccccc1 [TAMOXIFEN]
[1]
  Eos: 1%
  Fbg: 267 mg/dL
  Hb: 13 g/dL
  Ht: 39.3%
  Lym: 78%
  MCH: 21 pg
  MCHC: 33%
  MCV: 63.8 fL
  Mono: 4.2%
  Neu: 16.6%
  PT: 12.1 s
  Plat: 116.7 x10_4/uL
  RBC: 616 x10_4/ul
  WBC: 103.9 x10_2/uL
  KIDNEY_L: 0.8 g
  KIDNEY_R: 0.8 g
  KIDNEY_TOTAL: 1.6 g
  LIVER: 8.4 g
  ALT: 51 IU/L
  AST: 81.2 IU/L
  BUN: 10.4 mg/dL
  CRE: 0.2 mg/dL
  Cl: 106.6 meq/L
  DBIL: 0.016 mg/dL
  GLC: 178.8 mg/dL
  IP: 9.8 mg/dL
  LDH: 56 IU/L
  Na: 140 meq/L
  RALB: 2.6 g/dL
  TBIL: 0.052 mg/dL
  TC: 91.8 mg/dL
  TG: 86 mg/dL
  TP: 5.5 g/dL
  gamma-GTP: 1.2 IU/L
[2]
  TERMINAL_BW: 192.3 g
  APTT: 18.2 s
  Bas: 0%
  Eos: 1.2%
  Fbg: 269.4 mg/dL
  Hb: 13.2 g/dL
  Ht: 39.4%
  Lym: 73.8%
  MCH: 21.3 pg
  MCHC: 33.5%
  MCV: 63.7 fL
  Mono: 4.2%
  Neu: 20.4%
  PT: 12.1 s
  Plat: 107 x10_4/uL
  RBC: 618.2 x10_4/ul
  WBC: 64.9 x10_2/uL
  KIDNEY_L: 0.8 g
  KIDNEY_R: 0.8 g
  KIDNEY_TOTAL: 1.6 g
  LIVER: 7.7 g
  ALT: 43.4 IU/L
  AST: 82.8 IU/L
  BUN: 8 mg/dL
  CRE: 0.2 mg/dL
  Cl: 109 meq/L
  DBIL: 0.008 mg/dL
  GLC: 175.8 mg/dL
  IP: 10.7 mg/dL
  LDH: 92.4 IU/L
  Na: 141.8 meq/L
  RALB: 2.6 g/dL
  TBIL: 0.048 mg/dL
  TC: 82.2 mg/dL
  TG: 45.4 mg/dL
  TP: 5.4 g/dL
  gamma-GTP: 1.4 IU/L
[3]
  TERMINAL_BW: 194.8 g
  APTT: 16.1 s
  Bas: 0%
  Eos: 1%
  Fbg: 252.6 mg/dL
  Hb: 12.7 g/dL
  Ht: 38%
  Lym: 74.4%
  MCH: 21.6 pg
  MCHC: 33.3%
  MCV: 64.9 fL
  Mono: 2.8%
  Neu: 21.6%
  PT: 12.4 s
  Plat: 114.1 x10_4/uL
  RBC: 585.4 x10_4/ul
  WBC: 73.4 x10_2/uL
  KIDNEY_L: 0.8 g
  KIDNEY_R: 0.8 g
  KIDNEY_TOTAL: 1.7 g
  LIVER: 7.1 g
  ALT: 40 IU/L
  AST: 75.8 IU/L
  BUN: 8.6 mg/dL
  CRE: 0.2 mg/dL
  Cl: 107.6 meq/L
  DBIL: 0.008 mg/dL
  GLC: 178.8 mg/dL
  IP: 11 mg/dL
  LDH: 46 IU/L
  Na: 141.4 meq/L
  RALB: 2.4 g/dL
  TBIL: 0.042 mg/dL
  TC: 61.8 mg/dL
  TG: 35.4 mg/dL
  TP: 5.1 g/dL
  gamma-GTP: 1 IU/L
[4]
  TERMINAL_BW: 194.8 g
  APTT: 16.8 s
  Bas: 0%
  Eos: 1.2%
  Fbg: 232.8 mg/dL
  Hb: 12.7 g/dL
  Ht: 38.5%
  Lym: 79%
  MCH: 21.3 pg
  MCHC: 33%
  MCV: 64.5 fL
  Mono: 2.4%
  Neu: 17.2%
  PT: 12.8 s
  Plat: 117 x10_4/uL
  RBC: 597.6 x10_4/ul
  WBC: 83.2 x10_2/uL
  KIDNEY_L: 0.9 g
  KIDNEY_R: 0.9 g
  KIDNEY_TOTAL: 1.8 g
  LIVER: 8.7 g
  ALT: 52.2 IU/L
  AST: 79.2 IU/L
  BUN: 13 mg/dL
  CRE: 0.2 mg/dL
  Cl: 109.6 meq/L
  DBIL: 0.016 mg/dL
  GLC: 186 mg/dL
  IP: 8.3 mg/dL
  LDH: 64 IU/L
  Na: 143.2 meq/L
  RALB: 2.6 g/dL
  TBIL: 0.038 mg/dL
  TC: 60.2 mg/dL
  TG: 84.6 mg/dL
  TP: 5.4 g/dL
  gamma-GTP: 1.4 IU/L
60 mg/kg, 3 h, dose level High
  TERMINAL_BW: 193.1 g
  APTT: 16.1 s
  Bas: 0%
  Eos: 1%
  Fbg: 259.8 mg/dL
  Hb: 13.1 g/dL
  Ht: 39.5%
  Lym: 77.6%
  MCH: 21.8 pg
  MCHC: 33.3%
  MCV: 65.7 fL
  Mono: 3.8%
  Neu: 17.4%
  PT: 11.9 s
  Plat: 112.1 x10_4/uL
  RBC: 601.4 x10_4/ul
  WBC: 80.5 x10_2/uL
  KIDNEY_L: 0.9 g
  KIDNEY_R: 0.9 g
  KIDNEY_TOTAL: 1.7 g
  LIVER: 8.3 g
  ALT: 50.8 IU/L
  AST: 82.6 IU/L
  BUN: 9.4 mg/dL
  CRE: 0.2 mg/dL
  Cl: 106.8 meq/L
  DBIL: 0.026 mg/dL
  GLC: 169.2 mg/dL
  IP: 9.5 mg/dL
  LDH: 77 IU/L
  Na: 140.8 meq/L
  RALB: 2.6 g/dL
  TBIL: 0.05 mg/dL
  TC: 80 mg/dL
  TG: 106.2 mg/dL
  TP: 5.6 g/dL
  gamma-GTP: 1 IU/L
60 mg/kg, 6 h, dose level High
  TERMINAL_BW: 193.6 g
  Bas: 0%
  Eos: 0.8%
  Fbg: 252.6 mg/dL
  Hb: 12.8 g/dL
  Lym: 78.8%
  MCH: 21.5 pg
  MCHC: 33.4%
  MCV: 64.3 fL
  Mono: 2.6%
  Neu: 17.6%
  PT: 12.2 s
  Plat: 112.7 x10_4/uL
  RBC: 595.6 x10_4/ul
  WBC: 59.9 x10_2/uL
  KIDNEY_L: 0.8 g
  KIDNEY_R: 0.9 g
  KIDNEY_TOTAL: 1.7 g
  LIVER: 7.5 g
  ALT: 38.8 IU/L
  AST: 74.2 IU/L
  BUN: 7.6 mg/dL
  CRE: 0.2 mg/dL
  Cl: 109.4 meq/L
  DBIL: 0.012 mg/dL
  GLC: 175 mg/dL
  IP: 10.4 mg/dL
  LDH: 54.4 IU/L
  Na: 141.8 meq/L
  RALB: 2.5 g/dL
  TBIL: 0.042 mg/dL
  TC: 76.4 mg/dL
  TG: 56.2 mg/dL
  TP: 5.2 g/dL
  gamma-GTP: 1.2 IU/L
60 mg/kg, 9 h, dose level High
  TERMINAL_BW: 193.9 g
  APTT: 14.5 s
  Bas: 0%
  Eos: 0.8%
  Fbg: 274.6 mg/dL
  Hb: 13 g/dL
  Ht: 38.6%
  Lym: 79%
  MCH: 22.2 pg
  MCHC: 33.7%
  MCV: 65.8 fL
  Mono: 2.4%
  Neu: 17.4%
  PT: 12.1 s
  Plat: 121.3 x10_4/uL
  RBC: 586.6 x10_4/ul
  WBC: 71.5 x10_2/uL
  KIDNEY_L: 0.8 g
  KIDNEY_R: 0.8 g
  KIDNEY_TOTAL: 1.7 g
  LIVER: 7.3 g
  ALT: 43.8 IU/L
  AST: 75.2 IU/L
  BUN: 8.4 mg/dL
  CRE: 0.2 mg/dL
  Cl: 107 meq/L
  DBIL: 0.01 mg/dL
  GLC: 184.6 mg/dL
  IP: 11.2 mg/dL
  LDH: 59.8 IU/L
  Na: 141.6 meq/L
  RALB: 2.5 g/dL
  TBIL: 0.044 mg/dL
  TC: 79.4 mg/dL
  TG: 39 mg/dL
  TP: 5.3 g/dL
  gamma-GTP: 1.4 IU/L
[5]
  TERMINAL_BW: 193.1 g
  APTT: 15.8 s
  Bas: 0.2%
  Eos: 1.2%
  Fbg: 260.2 mg/dL
  Hb: 13.2 g/dL
  Ht: 39.4%
  Lym: 80.8%
  MCH: 21.5 pg
  MCHC: 33.4%
  MCV: 64.5 fL
  Mono: 3.2%
  Neu: 14.2%
  PT: 12.9 s
  Plat: 113.6 x10_4/uL
  RBC: 611.2 x10_4/ul
  WBC: 91.3 x10_2/uL
  KIDNEY_L: 0.9 g
  KIDNEY_R: 0.9 g
  KIDNEY_TOTAL: 1.7 g
  LIVER: 8.4 g
  ALT: 45 IU/L
  AST: 71.6 IU/L
  BUN: 12.8 mg/dL
  CRE: 0.2 mg/dL
  Cl: 109.4 meq/L
  DBIL: 0.018 mg/dL
  GLC: 185.8 mg/dL
  IP: 8.3 mg/dL
  LDH: 54 IU/L
  Na: 143.2 meq/L
  RALB: 2.6 g/dL
  TBIL: 0.044 mg/dL
  TC: 51.4 mg/dL
  TG: 81 mg/dL
  TP: 5.4 g/dL
  gamma-GTP: 1 IU/L

Source: ChEMBL document CHEMBL3885861, “Open TG-GATES”
